Converted amounts (≈) assume the structure as drawn. One block for each compound: values may come before it. The source made the active and inactive calls. No cut-off for these calls is given here.
Key:
[1] = test system: PC-3; assay: Induction of apoptosis in human PC-3 cells assessed as necrotic cells at 20 uM incubated for 48 hrs by annexin V-FITC/PI staining based flow cytometry (reference value: 0.14 %); format: functional
[2] = test system: MGC-803; assay: Induction of cell cycle arrest in human MGC-803 cells assessed as accumulation of cells at G2 phase at 20 uM incubated for 48 hrs by flow cytometry (reference value: 21.35 %); format: functional
[3] = molecular target: T1, S-phase kinase-associated protein 2/Cyclin-dependent kinases regulatory subunit 1/S-phase kinase-associated protein 1 (Homo sapiens, UniProt Q13309); assay: Inhibition of GST-tagged Skp2/Skp1 (unknown origin)/His6-tagged Cks1 (unknown origin) interaction preincubated with Skp2/Skp1 for 10 mins followed by Cks1 addition measured after 20 mins by HTRF assay; format: protein assay
[4] = test system: MGC-803; assay: Induction of apoptosis in human MGC-803 cells assessed as necrotic cells at 20 uM incubated for 48 hrs by annexin V-FITC/PI staining based flow cytometry (reference value: 0.89 %); format: functional
[5] = test system: MGC-803; assay: Induction of apoptosis in human MGC-803 cells assessed as late apoptotic cells at 20 uM incubated for 48 hrs by annexin V-FITC/PI staining based flow cytometry (reference value: 0.95 %); format: functional
[6] = test system: PC-3; assay: Induction of apoptosis in human PC-3 cells assessed as viable cells at 20 uM incubated for 48 hrs by annexin V-FITC/PI staining based flow cytometry (reference value: 98.6 %); format: functional; details: read-out: Activity
[7] = test system: PC-3; assay: Upregulation of p27 level in human PC-3 cells at 20 uM incubated for 48 hrs by Western blot analysis; format: functional, cell-based
[8] = test system: MGC-803; assay: Upregulation of p21 level in human MGC-803 cells at 20 uM incubated for 48 hrs by Western blot analysis; format: functional, cell-based
[9] = test system: PC-3; assay: Induction of cell cycle arrest in human PC-3 cells assessed as accumulation of cells at S phase at 20 uM incubated for 48 hrs by flow cytometry (reference value: 22.44 %); format: functional
[10] = test system: PC-3; assay: Induction of cell cycle arrest in human PC-3 cells assessed as accumulation of cells at G2 phase at 20 uM incubated for 48 hrs by flow cytometry (reference value: 22.59 %); format: functional
[11] = test system: PC-3; assay: Upregulation of p21 level in human PC-3 cells at 20 uM incubated for 48 hrs by Western blot analysis; format: functional, cell-based
[12] = test system: PC-3; assay: Downregulation of Skp2 level in human PC-3 cells at 20 uM incubated for 48 hrs by Western blot analysis; format: functional, cell-based
[13] = test system: MGC-803; assay: Induction of apoptosis in human MGC-803 cells assessed as early apoptotic cells at 20 uM incubated for 48 hrs by annexin V-FITC/PI staining based flow cytometry (reference value: 0.21 %); format: functional
[14] = test system: PC-3; assay: Induction of apoptosis in human PC-3 cells assessed as early apoptotic cells at 20 uM incubated for 48 hrs by annexin V-FITC/PI staining based flow cytometry (reference value: 0.85 %); format: functional
[15] = test system: MGC-803; assay: Induction of cell cycle arrest in human MGC-803 cells assessed as accumulation of cells at S phase at 20 uM incubated for 48 hrs by flow cytometry (reference value: 22.72 %); format: functional
[16] = test system: PC-3; assay: Induction of apoptosis in human PC-3 cells assessed as late apoptotic cells at 20 uM incubated for 48 hrs by annexin V-FITC/PI staining based flow cytometry (reference value: 0.45 %); format: functional
[17] = test system: MGC-803; assay: Induction of cell cycle arrest in human MGC-803 cells assessed as accumulation of cells at G1 phase at 20 uM incubated for 48 hrs by flow cytometry (reference value: 54.46 %); format: functional
[18] = test system: MGC-803; assay: Downregulation of Skp2 level in human MGC-803 cells at 20 uM incubated for 48 hrs by Western blot analysis; format: functional, cell-based
[19] = test system: MGC-803; assay: Induction of apoptosis in human MGC-803 cells assessed as viable cells at 20 uM incubated for 48 hrs by annexin V-FITC/PI staining based flow cytometry (reference value: 98 %); format: functional; details: read-out: Activity
[20] = test system: MGC-803; assay: Upregulation of p27 level in human MGC-803 cells at 20 uM incubated for 48 hrs by Western blot analysis; format: functional, cell-based
[21] = test system: PC-3; assay: Induction of cell cycle arrest in human PC-3 cells assessed as accumulation of cells at G1 phase at 20 uM incubated for 48 hrs by flow cytometry (reference value: 57.39 %); format: functional
[22] = molecular target: T1, S-phase kinase-associated protein 2/Cyclin-dependent kinases regulatory subunit 1/S-phase kinase-associated protein 1; assay: Inhibition of GST-tagged Skp2/Skp1 (unknown origin)/His6-tagged Cks1 (unknown origin) interaction by AlphaScreen assay; format: protein assay
[23] = Toxicity in mouse assessed as decrease in total protein level at 5 mg/kg; format: organism-based; details: in vivo
[24] = test system: PC-3; assay: Antitumor activity against human PC-3 cells xenografted in NOD-SCID mouse model assessed as tumor growth inhibition at 5 mg/kg, ip administered once every 3 days for 21 days relative to control; format: functional; details: PC-3, 504 h, time 21 day, read-out: TGI
[25] = Toxicity in mouse assessed as increase in blood glutamic pyruvic transaminase level at 5 mg/kg; format: organism-based; details: in vivo
[26] = Toxicity in mouse assessed as increase in blood total bilirubin level at 5 mg/kg; format: organism-based; details: in vivo
[27] = Toxicity in mouse assessed as increase in blood BUN level at 5 mg/kg; format: organism-based; details: in vivo
[28] = Toxicity in mouse assessed as increase in blood GGT level at 5 mg/kg; format: organism-based; details: in vivo
[29] = Toxicity in mouse assessed as increase in blood creatinine level at 5 mg/kg; format: organism-based; details: in vivo
[30] = Toxicity in mouse assessed as decrease in platelet level at 5 mg/kg; format: organism-based; details: in vivo
[31] = test system: PC-3; assay: Antitumor activity against human PC-3 cells assessed as cell growth inhibition incubated for 72 hrs by MTT assay; format: functional, cell-based; details: PC-3, 72 h
[32] = Antitumor activity against human EC1 cells assessed as cell growth inhibition incubated for 72 hrs by MTT assay; format: functional, cell-based; details: EC1, 72 h
[33] = test system: MCF7; assay: Antitumor activity against human MCF7 cells assessed as cell growth inhibition incubated for 72 hrs by MTT assay; format: functional, cell-based; details: MCF7, 72 h
[34] = Solubility in cell culture medium by HPLC analysis; format: physicochemical
[35] = test system: MGC-803; assay: Antitumor activity against human MGC-803 cells assessed as cell growth inhibition incubated for 72 hrs by MTT assay; format: functional, cell-based; details: MGC-803, 72 h
[36] = test system: NCI-H1299; assay: Antitumor activity against human NCI-H1299 cells assessed as cell growth inhibition incubated for 72 hrs by MTT assay; format: functional, cell-based; details: NCI-H1299, 72 h

T1 sequence (P61024 whole entry): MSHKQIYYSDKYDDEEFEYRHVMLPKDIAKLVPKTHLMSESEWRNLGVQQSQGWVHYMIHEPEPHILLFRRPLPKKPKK
T1 sequence (Q13309 whole entry): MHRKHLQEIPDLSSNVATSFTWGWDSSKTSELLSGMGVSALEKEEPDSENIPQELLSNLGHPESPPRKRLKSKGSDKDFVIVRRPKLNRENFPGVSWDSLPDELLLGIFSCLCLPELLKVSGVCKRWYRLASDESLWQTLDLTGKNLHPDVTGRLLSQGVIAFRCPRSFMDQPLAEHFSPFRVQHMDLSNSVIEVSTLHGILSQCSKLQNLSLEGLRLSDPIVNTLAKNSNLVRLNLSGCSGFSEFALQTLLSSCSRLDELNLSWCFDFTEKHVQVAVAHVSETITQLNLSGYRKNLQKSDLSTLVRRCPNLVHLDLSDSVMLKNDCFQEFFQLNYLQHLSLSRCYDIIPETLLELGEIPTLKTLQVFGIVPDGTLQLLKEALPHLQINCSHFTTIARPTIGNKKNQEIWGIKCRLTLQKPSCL
T1 sequence (P63208 whole entry, further chain): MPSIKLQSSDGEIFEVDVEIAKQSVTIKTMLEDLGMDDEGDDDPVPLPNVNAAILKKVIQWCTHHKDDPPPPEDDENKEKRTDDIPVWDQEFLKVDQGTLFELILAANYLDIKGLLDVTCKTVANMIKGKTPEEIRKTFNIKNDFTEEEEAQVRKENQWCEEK

- IC50 [3]: 42.8 µM
SMILES: CC(C)N(CCCCOCC(=O)NS(C)(=O)=O)c1cnc(-c2ccccc2)c(-c2ccccc2)n1 [SELEXIPAG]
- Activity [1]: 2.22%
- Activity [2]: 21.27%
- Activity [4]: 0.44%
- Activity [5]: 1.21%
- viability at 20 µM [6]: 92.7%
- Activity [7]: Active
- Activity [8]: Active
- Activity [9]: 34.85%
- Activity [10]: 18.81%
- Activity [11]: Active
- Activity [12]: Active
- Activity [13]: 1.58%
- Activity [14]: 0.57%
- Activity [15]: 27.3%
- Activity [16]: 4.54%
- Activity [17]: 49.75%
- Activity [18]: Active
- viability at 20 µM [19]: 96.8%
- Activity [20]: Active
- Activity [21]: 44.88%

- IC50 [22]: 36.6 µM
SMILES: O=C(OC12CC3CC(CC(C3)C1)C2)c1ccc(NCc2cc(O)ccc2O)cc1

SMILES: CC(=O)O[C@H]1C(=O)[C@@]2(C)[C@H]([C@H](OC(=O)c3ccccc3)[C@]3(O)C[C@H](OC(=O)[C@H](O)[C@@H](NC(=O)c4ccccc4)c4ccccc4)C(C)=C1C3(C)C)[C@]1(OC(C)=O)CO[C@@H]1C[C@@H]2O [PACLITAXEL]
- Activity [23]: Toxic
- inhibition in vivo at 5 mg/kg [24]: 75.8%
- Activity [25]: Toxic
- Activity [26]: Toxic
- Activity [27]: Toxic
- Activity [28]: Toxic
- Activity [29]: Toxic
- Activity [30]: Toxic

- IC50 [3]: 2.4 µM
- IC50 [31]: 70.9 µM
- IC50 [33]: > 100 µM
- solubility [34]: 0.08 µg/mL (≈ 0.178 µM)
- IC50 [35]: > 100 µM
- IC50 [36]: > 100 µM
SMILES: O=C(NCC1CCN(c2cnc(-c3ccccc3)c(-c3ccccc3)n2)CC1)c1ccccc1
- IC50 [32]: 81.1 µM

— ChEMBL document CHEMBL5338791, “Discovery of Novel 1,3-Diphenylpyrazine Derivatives as Potent S-Phase Kinase-Associated Protein 2 (Skp2) Inhibitors for the Treatment of Cancer” (J Med Chem, 2023)
